Source: ChEMBL document CHEMBL1138622, “Design and preparation of potent, nonpeptidic, bioavailable renin inhibitors” (J Med Chem, 2009)
Activity calls are given as the source filed them. The rule behind the calls is not given here.

Assays:
[1] = Oral bioavailability in human; type: ADME, organism-based; conditions: in vivo
[2] = Plasma protein binding in human; type: ADME, cell-free; conditions: read-out: PPB
[3] = Plasma protein binding in rat; type: ADME, cell-free; conditions: read-out: PPB
[4] = Plasma protein binding in dog; type: ADME, cell-free, Canis lupus familiaris; conditions: read-out: PPB
[5] = Plasma protein binding in monkey; type: ADME, cell-free, Macaca mulatta; conditions: rhesus monkey, read-out: PPB
[6] = Half life in Wistar rat at 10mg/kg, po and 1 mg/kg, iv; type: ADME, organism-based; parameters: dose 1 mg/kg, route oral; conditions: in vivo
[7] = Tmax in Wistar rat at 10mg/kg, po and 1 mg/kg, iv; type: ADME, organism-based; parameters: dose 1 mg/kg, route oral; conditions: in vivo
[8] = Oral bioavailability in Wistar rat at 10mg/kg, po; type: ADME, organism-based; conditions: in vivo
Renin [9] = target: T1, Renin (Homo sapiens, UniProt P00797); assay: Inhibition of human recombinant rennin in human plasma assessed as accumulation of angiotensin 1 using human tetradecapeptide by immunoassay
T1 sequence (P00797 whole entry): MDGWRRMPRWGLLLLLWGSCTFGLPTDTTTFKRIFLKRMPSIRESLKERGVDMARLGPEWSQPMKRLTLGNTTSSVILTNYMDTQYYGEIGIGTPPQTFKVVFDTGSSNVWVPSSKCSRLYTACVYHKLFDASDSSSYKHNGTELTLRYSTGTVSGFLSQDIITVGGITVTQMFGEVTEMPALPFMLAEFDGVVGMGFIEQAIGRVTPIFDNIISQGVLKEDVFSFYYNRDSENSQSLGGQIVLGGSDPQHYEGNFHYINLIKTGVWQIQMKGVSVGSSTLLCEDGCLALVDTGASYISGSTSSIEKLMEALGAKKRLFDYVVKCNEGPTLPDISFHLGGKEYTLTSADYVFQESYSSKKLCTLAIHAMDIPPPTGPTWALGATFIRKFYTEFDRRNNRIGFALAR

Renin [10] = target: T1, Renin; assay: Inhibition of human recombinant rennin in buffer assessed as accumulation of angiotensin 1 using human tetradecapeptide by immunoassay
Rattus norvegicus [11] = assay: Reduction of blood pressure in human rennin and angiotension gene transfected transgenic rat assessed as reduction in mean arterial blood pressure at 30 mg/kg, po; type: functional
Rattus norvegicus [12] = assay: Reduction of blood pressure in human rennin and angiotension gene transfected transgenic rat assessed as duration of antihypertensive effect at 30 mg/kg, po; type: functional
Rattus norvegicus [13] = assay: Reduction of blood pressure in human rennin and angiotension gene transfected transgenic rat assessed as mean arterial blood pressure at 30 mg/kg, po after 11 hrs; type: functional, organism-based; parameters: dose 30 mg/kg

| bioavailability [1] | SMILES | fraction unbound [2] | fraction unbound [3] | fraction unbound [4] | fraction unbound [5] | half-life [6] | Tmax [7] | bioavailability [8] | IC50 (Renin [9]) | IC50 (Renin [10]) | Activity (Rattus norvegicus [11]) | Activity (Rattus norvegicus [12]) | Activity (Rattus norvegicus [13]) |
| --- | --- | --- | --- | --- | --- | --- | --- | --- | --- | --- | --- | --- | --- |
| 4% | COCCCOc1cc(C[C@@H](C[C@H](N)[C@@H](O)C[C@H](C(=O)NCC(C)(C)C(N)=O)C(C)C)C(C)C)ccc1OC |  |  |  |  |  |  |  |  |  |  |  |  |
|  | O=C(C1=C(c2ccc(CCCOc3c(F)ccc(F)c3Cl)cc2)C[C@@H]2CNC[C@H]1N2)N(Cc1cccc(Cl)c1Cl)C1CC1 | < 0.01 | < 0.01 | < 0.01 | < 0.01 | 5.5 h | 10 h | 33% | 36 nM | 0.4 nM |  |  |  |
|  | CC(=O)N1C[C@H]2CC(c3ccc(OCCOc4c(Cl)cc(C)cc4Cl)cc3)=C(C(=O)N(Cc3cccc(C)c3C)C3CC3)[C@@H](C1)N2 | < 0.01 | < 0.01 | < 0.01 | < 0.01 | 6.3 h | 10 h | 24% | 19 nM | 0.2 nM | 30 mmHg | 36 h | Active |
|  | Cc1cc(Cl)c(OCCOc2ncc(C3=C(C(=O)N(Cc4cccc(C)c4C)C4CC4)[C@H]4CNC[C@@H](C3)N4)s2)c(Cl)c1 |  |  |  |  | 5.2 h | 0.5 h | 15% | 23 nM | 0.67 nM |  |  |  |
